According to patent US5302610A, “Renal-selective biphenylmethyl imidazole angiotensin II antagonists for treatment of hypertension” (G. D. Searle & Co., priority 1991, dated 1994):

Experiments:
guanylate cyclase = details: cited from earlier work
angiotensin II = details: binding experiments, functional assays and in vivo tests; cited from earlier work
[1] = tested on: response to angiotensin II (urinary sodium excretion); test: Assay E: Urinary Sodium Excretion, acute administration with AII infusion; assay type: in vivo, male Sprague-Dawley rats, conscious; details: for Urinary Sodium Excretion: means±SE
Experimental: (§1) antagonist compound (Ex. #5) and a glutamyl conjugate (Ex. #81) of the Ex. #5 AII antagonist compound to determine the renal selectivity of the conjugate. Male Sprague-Dawley rats (300-350 g body weight) had catheters implanted into the femoral artery and vein under chloral hydrate anesthesia (400 mg/kg, i.p.). After 2 to 4 days of recovery, on the experimental day, a urinary bladder catheter was implanted under methohexital anesthesia (50 mg/kg, i.p.). Rats were placed in a restraint device to allow for urine collection and mean arterial pressure measurements. After 1-2 hours of recovery, in conscious rats, an isotonic saline infusion (50 μl/min) was started and continued for the duration of the experiment. After one hour equilibration to the saline infusion, a 20 minute control urine and mean arterial pressure collection were obtained. Then angiotensin II was infused at 20 ng/min for 25 minutes. After 5 minutes of angiotensin II infusion, a 20 minute experimental collection was made. Finally, 5 minutes after the end of angiotensin II infusion, a 20 minute recovery collection was obtained. In separate groups of rats, vehicle (0.3 ml isotonic saline, i.v. bolus), Example #5 angiotensin II antagonist compound (100 mg/kg, i.v. bolus), or Example #81 conjugate (100 mg/kg, i.v. bolus) was administered 1-2 minutes prior to onset of angiotensin II infusion. […] Results are shown in Tables XIII and XIV and also in FIGS. 3 and 4. Data are presented as means±SE. Repeated measures analysis of variance was used for main effects and interactions and Tukey's HSD test was used for pairwise comparisons among means. Statistical significance was defined as p<0.05.

[2] = tested on: response to angiotensin II (mean arterial pressure); test: Assay E: Mean Arterial Pressure, acute administration with AII infusion; assay type: in vivo, male Sprague-Dawley rats, conscious; details: for Mean Arterial Pressure: n = 6, means±SE
Experimental: as §1

kidney = details: normal subjects; cited from earlier work
dopa-decarboxylase = details: in vivo; cited from earlier work
[3] = tested on: spontaneously hypertensive rats (SHR); test: Assay D: Mean Arterial Pressure, chronic infusion of conjugate; assay type: in vivo
Experimental: (§2) This in vivo experiment was conducted to characterize the effects of the Example 81 conjugate on spontaneously hypertensive rats (SHR) by acute administration i.v. and by chronic administration i.v. The Example 81 compound or saline vehicle was infused continuously for four days in SHR. Mean arterial pressure was measured (Gould Chart Recorder, model 3800; Statham P23Db pressure transducer) via an indwelling femoral artery catheter between 10:00 A. M. and 2:00 P. M. each day. The Example 81 conjugate (10 mg/hr) or saline was infused via a jugular vein catheter with a Harvard infusion pump. […] A test was conducted to determine whether the Example 81 conjugate would antagonize non-renal, vascular angiotensin II receptors. In this test AII was administered by bolus injection (100 ng/kg) to the SHR rats (described above) on the control day and on days 1, 2 and 3 during conjugate infusion.

[4] = tested on: non-renal, vascular angiotensin II receptors; test: Assay D: AII Pressor Response during chronic infusion of conjugate; assay type: in vivo, spontaneously hypertensive rats (SHR); details: for AII Pressor Response (MAP): AII 100 ng/kg bolus
Experimental: as §2

[5] = tested on: γ-glutamyl transpeptidase; details: dogs; cited from earlier work
[6] = in vivo; cited from earlier work
angiotensin II receptors = details: cited from earlier work
[7] = Control day (baseline before infusion)
[8] = 100 mg/kg i.v. bolus, Recovery after AII infusion
[9] = 100 mg/kg i.v. bolus, during AII infusion 20 ng/min, * in table
[10] = 100 mg/kg, i.v. bolus, AII 20 ng/min

CCCCc1ccc(NN)nc1 [2-hydrazino-5-n-butylpyridine]
guanylate cyclase activity (guanylate cyclase): stimulates guanylate cyclase activity

CCCCc1nc(Cl)c(CC(=O)O)n1Cc1ccccc1Cl [2-n-butyl-4-chloro-1-(2-chlorobenzyl)imidazole-5-acetic acid]
angiotensin II antagonist activity (angiotensin II): specific competitive angiotensin II antagonist activity

angiotensin II: an octapeptide which is the primary active species of this system (DRVYIHPF; Angiotensin-2; UniProt P01019 25-32, looked up) [reference compound]
effect of angiotensin II infusion on urinary sodium excretion ([1]; AII 20 ng/min for 25 minutes): decreased urinary sodium excretion
effect of angiotensin II infusion on mean arterial pressure ([2]; AII 20 ng/min for 25 minutes): increased mean arterial pressure

CCCCc1nc(Cl)c(CC(=O)O)n1Cc1ccccc1[N+](=O)[O-] [2-butyl-4-choloro-1-(2-nitrobenzyl)imidazole-5-acetic acid]
angiotensin II antagonist activity (angiotensin II): specific competitive angiotensin II antagonist activity

N[C@@H](CCC(=O)N[C@@H](Cc1ccc(O)c(O)c1)C(=O)O)C(=O)O [gludopa, γ-L-glutamyl-L-dopa]
kidney specificity (kidney): relatively specific for the kidney
renal blood flow, glomerular filtration and urinary sodium excretion (kidney): increase renal blood flow, glomerular filtration and urinary sodium excretion in normal subjects
blockade of activity by the dopa-decarboxylase inhibitor carbidopa (dopa-decarboxylase): activity can be blocked by the dopa-decarboxylase inhibitor carbidopa

CCCCc1nc(Cl)c(CO)n1Cc1ccc(-c2ccccc2C(=O)NNC(=O)CC[C@H](NC(C)=O)C(=O)O)cc1 [Example 81, N-acetyl-L-glutamic acid, 5-[[4'-[2-butyl-4-chloro-5-(hydroxymethyl)-1H-imidazol-1-ylmethyl][1,1'-biphenyl]-2-yl]carbonyl]hydrazide]
mean arterial pressure as compared to saline vehicle control ([3]; 10 mg/hr i.v. infusion, SHR): lowered mean arterial pressure as compared to the saline vehicle control
Mean Arterial Pressure (MAP) ([3]; 10 mg/hr i.v. infusion, day 1): 148 mm Hg
Mean Arterial Pressure (MAP) ([3]; 10 mg/hr i.v. infusion, day 2): 135 mm Hg
Mean Arterial Pressure (MAP) ([3]; 10 mg/hr i.v. infusion, day 3): 140 mm Hg
Mean Arterial Pressure (MAP) [3, 7]: 163 mm Hg
systemic angiotensin II receptor antagonism ([4]; 10 mg/hr i.v. infusion, days 1, 2 and 3): No evidence for systemic angiotensin II receptor antagonism was observed
AII Pressor Response (MAP) ([4]; 10 mg/hr i.v. infusion, day 1): 45 mm Hg
AII Pressor Response (MAP) ([4]; 10 mg/hr i.v. infusion, day 2): 65 mm Hg
AII Pressor Response (MAP) ([4]; 10 mg/hr i.v. infusion, day 3): 60 mm Hg
AII Pressor Response (MAP) [4, 7]: 44 mm Hg
Urinary Sodium Excretion [1, 8]: 1.8 ± 0.4 μEq/min/100 g BW
Urinary Sodium Excretion [1, 9]: 4.1 ± 1.3 μEq/min/100 g BW
antinatriuretic (urinary sodium excretion) response to angiotensin II [1, 10]: prevented the antinatriuretic response to angiotensin II
urinary sodium excretion during angiotensin II infusion [1, 10]: actually increased urinary sodium excretion
Urinary Sodium Excretion ([1]; Control period (before dosing)): 1.3 ± 0.3 μEq/min/100 g BW
Mean Arterial Pressure [2, 8]: 121 ± 4 mm Hg
Mean Arterial Pressure [2, 9]: 151 ± 4 mm Hg
mean arterial pressure response to angiotensin II [2, 10]: had no effect on the mean arterial pressure response
Mean Arterial Pressure ([2]; Control period (before dosing)): 117 ± 3 mm Hg

N[C@@H](CCC(=O)NCCc1ccc(O)c(O)c1)C(=O)O [L-γ-glutamyl amide of dopamine]
generation of dopamine in vivo [5]: generate dopamine in vivo by specific enzymatic cleavage by γ-glutamyl transpeptidase

CCCCc1ccc(NNC(=O)CCC(NC(C)=O)C(=O)O)nc1 (stereo not drawn)
renal vasodilation [6]: provided selective renal vasodilation

CNCC(=O)N[C@@H](CCCN=C(N)N)C(=O)N[C@H](C(=O)N[C@@H](Cc1ccc(O)cc1)C(=O)N[C@H](C(=O)N[C@@H](Cc1cnc[nH]1)C(=O)N1CCC[C@H]1C(=O)N[C@@H](C)C(=O)O)C(C)C)C(C)C [Saralasin]
residual agonist activity (angiotensin II receptors): have a significant residual agonist activity
